pIC50: −log10 of the molar value. Where a name gives a salt, the structure may show the parent alone.

The target of assay [1] is T1, pseudo-kinase domain (JH2, amino-acids 536-812) of human V617F mutant JAK2 (Homo sapiens, UniProt O60674, F794H/V617F/W659A/W777A).
T1 construct: pseudo-kinase domain (JH2, amino-acids 536-812 with 3 surface mutations W659A, W777A, F794H); purchased BPS Bioscience 79498; host or cells: baculovirus expression system
As to the kind of experiment: JAK2 LanthaScreen JH2-V617F Binding Assay. Particulars: 1 hour at 25° C. The protocol: Example C. JAK2 LanthaScreen JH2-V617F Binding Assay
(§1) JAK2 JH2-V617F binding assay utilizes pseudo-kinase domain (JH2, amino-acids 536-812 with 3 surface mutations W659A, W777A, F794H) of human V617F mutant JAK2 expressed as C-terminal His-Avi-tagged, biotinylated protein in a baculovirus expression system (BPS Bioscience, Catalog #79498). The assay was conducted in black 384-well polystyrene plates in a final reaction volume of 20 μL. JAK2 JH2-V617F (0.26 nM) was incubated with compounds (100 nL serially diluted in DMSO) in the presence of 50 nM Fluorescent JAK2-JH2 Tracer (MedChem Express Catalog #HY-102055) and 0.25 nM Streptavidin-Tb cryptate (Cisbio Part #610SATLB) in assay buffer (50 mM Tris, pH=7.5, 10 mM MgCl2, 0.01% Brij-35, 0.1% BSA, 1 mM EGTA, 5% Glycerol and 5 mM DTT). Non-specific binding was accessed in the presence of 2 mM ATP. After incubation for 1 hour at 25° C., LanthaScreen signals were read on a PHERAstar FS plate reader (BMG LABTECH). Data was analyzed with IDBS XLfit and GraphPad Prism 5.0 software using a four parameter dose response curve to determine IC50 for each compound.

For assay [2], the target named is T2, pseudo-kinase domain (JH2, amino-acids 536-812) of human Wild Type JAK2 (Homo sapiens, UniProt O60674, F794H/W659A/W777A).
T2 construct: pseudo-kinase domain (JH2, amino-acids 536-812 with 3 surface mutations W659A, W777A, F794H); purchased BPS Bioscience 79463; host or cells: baculovirus expression system
As to the kind of experiment: JAK2 LanthaScreen JH2-WT Binding Assay. The note with it: 1 hour at 25° C. The protocol:
Example B. JAK2 LanthaScreen JH2-WT Binding Assay
as §1, with “JH2-WT” for “JH2-V617F”, “Wild Type” for “V617F mutant”, “#79463).” for “#79498).”, “JH2-WT (0.145” for “JH2-V617F (0.26”

Assay [3] has as its target T3, catalytic domain (JH1, amino acids 826-1132) of human JAK2 (Homo sapiens, UniProt O60674).
T3 construct: catalytic domain (JH1, amino acids 826-1132) of human JAK2; purchased Carna Biosciences 08-445-20N; host or cells: baculovirus expression system
As to the kind of experiment: JAK2 LanthaScreen JH1 Binding Assay. The note with it: 2 hours at 25° C. Here is the method:
Example A. JAK2 LanthaScreen JH1 Binding Assay
JAK2 JH1 binding assay utilizes catalytic domain (JH1, amino acids 826-1132) of human JAK2 expressed as N-terminal FLAG-tagged, biotinylated protein in a baculovirus expression system (Carna Biosciences, Product #08-445-20N). The assay was conducted in black 384-well polystyrene plates in a final reaction volume of 20 μL. JAK2 JH1 (1.5 nM) was incubated with compounds (100 nL serially diluted in DMSO) in the presence of 50 nM Fluorescent JAK2-JH1 Tracer and 0.5 nM Streptavidin-Tb cryptate (Cisbio Part #610SATLB) in assay buffer (50 mM Tris, pH=7.5, 10 mM MgCl2, 0.01% Brij-35, 0.1% BSA, 1 mM EGTA, 5% Glycerol and 5 mM DTT). Non-specific binding was accessed in the presence of 2 mM ATP. After incubation for 2 hours at 25° C., LanthaScreen signals were read on a PHERAstar FS plate reader (BMG LABTECH). Data was analyzed with IDBS XLfit and GraphPad Prism 5.0 software using a four parameter dose response curve to determine IC50 for each compound.

Assay [4] deals with T4, catalytic domain (JH1, amino acids 808-1132) of human JAK2 (Homo sapiens, UniProt O60674).
T4 construct: catalytic domain (JH1, amino acids 808-1132) of human JAK2; His (N); purchased BPS Bioscience 40450; host or cells: baculovirus expression system
As to the kind of experiment: JAK2 HTRF Enzyme Activity Assay. In kind it is biochemical. Particulars: ATP 30 μM, read-out: ENZ 30UMATP. The protocol: Example D. JAK2 HTRF Enzyme Activity Assay
JAK2 enzyme activity assays utilize catalytic domain (JH1, amino acids 808-1132) of human JAK2 expressed as N-terminal His-tagged protein in a baculovirus expression system (BPS Bioscience, Catalog #40450). The assays was conducted in black 384-well polystyrene plates in a final reaction volume of 20 μL. JAK2 (0.015 nM) was incubated with compounds (100 nL serially diluted in DMSO) in the presence of ATP (30 μM or 1 mM) and 500 nM Biotin-labeled […] (SEQ ID NO.: 1) peptide (BioSource International, custom synthesis) in assay buffer (50 mM Tris, pH=7.5, 10 mM MgCl2, 0.01% Brij-35, 0.1% BSA, 1 mM EGTA, 5% Glycerol and 5 mM DTT) for 60 minutes at 25° C. The reactions were stopped by the addition of 10 μL of detection buffer (50 mM Tris, pH 7.8, 0.5 mg/mL BSA, 150 mM NaCl), supplemented with EDTA, LANCE Eu-W1024 anti-phosphotyrosine (PY20), (PerkinElmer, Catalog #AD0067) and Streptavidin SureLight APC (PerkinElmer Catalog #CR130-100), for a final concentration of 15 mM, 1.5 nM and 75 nM, respectively. HTRF signals were read after 30 minutes incubation at room temperature on a PHERAstar FS plate reader (BMG LABTECH). Data was analyzed with IDBS XLfit and GraphPad Prism 5.0 software using a four parameter dose response curve to determine IC50 for each compound.
Background: Time-resolved FRET reads energy transfer from a long-lived donor to a nearby acceptor.

T1 sequence (O60674 536-812 V617F/W659A/W777A/F794H): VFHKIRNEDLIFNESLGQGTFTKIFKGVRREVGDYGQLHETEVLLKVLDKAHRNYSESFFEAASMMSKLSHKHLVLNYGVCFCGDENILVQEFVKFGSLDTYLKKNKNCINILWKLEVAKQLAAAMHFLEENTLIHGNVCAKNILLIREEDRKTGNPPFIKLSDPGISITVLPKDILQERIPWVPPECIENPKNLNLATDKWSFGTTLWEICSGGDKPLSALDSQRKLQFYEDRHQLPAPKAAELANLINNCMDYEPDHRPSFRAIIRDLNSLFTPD
T4 sequence (O60674 808-1132): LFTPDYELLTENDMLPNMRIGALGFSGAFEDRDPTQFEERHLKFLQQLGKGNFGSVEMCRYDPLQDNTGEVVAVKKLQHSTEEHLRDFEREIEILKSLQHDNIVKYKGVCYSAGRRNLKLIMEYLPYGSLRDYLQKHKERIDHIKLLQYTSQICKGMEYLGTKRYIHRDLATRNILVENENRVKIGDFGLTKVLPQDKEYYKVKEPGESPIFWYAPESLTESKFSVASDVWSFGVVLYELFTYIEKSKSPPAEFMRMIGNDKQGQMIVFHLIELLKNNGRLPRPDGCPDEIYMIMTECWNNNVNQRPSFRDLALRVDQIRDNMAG
T2 sequence (O60674 536-812 W659A/W777A/F794H): as the sequence (O60674 536-812 V617F/W659A/W777A/F794H) above, with F82V counted along it
T3 sequence (O60674 826-1132): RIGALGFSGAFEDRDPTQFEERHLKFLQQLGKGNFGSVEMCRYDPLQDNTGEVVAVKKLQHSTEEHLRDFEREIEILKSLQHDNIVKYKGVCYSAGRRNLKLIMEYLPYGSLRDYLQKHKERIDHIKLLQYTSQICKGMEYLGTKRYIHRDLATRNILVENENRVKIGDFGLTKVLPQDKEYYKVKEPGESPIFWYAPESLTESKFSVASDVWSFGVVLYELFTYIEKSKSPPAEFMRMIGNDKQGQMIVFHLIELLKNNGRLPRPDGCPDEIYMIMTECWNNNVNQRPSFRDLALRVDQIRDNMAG

Take `CC(CC#N)n1cc(-c2ccc(-c3c(-c4cnn(C)c4)[nH]c4ncc5c(c34)C3(CCCC3)C(=O)N5C)cc2)cn1` (racemic) [Example 14, 3-(4-(4-(6′-Methyl-2′-(1-methyl-1H-pyrazol-4-yl)-7′-oxo-6′,7′-dihydro-3′H-spiro[cyclopentane-1,8′-dipyrrolo[2,3-b:3′,2′-d]pyridin]-1′-yl)phenyl)-1H-pyrazol-1-yl)butanenitrile trifluoroacetate salt]: the pIC50 was 6.30 to 7.00 in assay [1], no less than 7.00 in assay [2], less than 5.60 in assay [3] and less than 5.60 in assay [4].

With `CN1C(=O)C2(CCN(C(C(N)=O)c3ccc(F)cc3)CC2)c2c1cnc1[nH]c(-c3cnn(C)c3)c(-c3ccccc3)c21` (racemic) [Example 26, 2-(4-Fluorophenyl)-2-(6-methyl-2-(1-methyl-1H-pyrazol-4-yl)-7-oxo-1-phenyl-6,7-dihydro-3H-spiro[dipyrrolo[2,3-b:3′,2′-d]pyridine-8,4′-piperidin]-1′-yl)acetamide, trifluoroacetate salt], the pIC50 was no less than 7.00 in assay [1], no less than 7.00 in assay [2], 6.30 to 7.00 in assay [3] and no less than 7.00 in assay [4].

Take `CN1C(=O)C2(CCN(C3(CC#N)CCC3)CC2)c2c1cnc1[nH]c(C3=CCC(C(=O)N4CCOCC4)CC3)c(-c3ccc4c(cnn4C)c3)c21` (racemic) [Example 34, 2-(1-(6-Methyl-1-(1-methyl-1H-indazol-5-yl)-2-(4-(morpholine-4-carbonyl)cyclohex-1-en-1-yl)-7-oxo-6,7-dihydro-3H-spiro[dipyrrolo[2,3-b:3′,2′-d]pyridine-8,4′-piperidin]-1′-yl)cyclobutyl)acetonitrile, trifluoroacetate salt]: the pIC50 in assay [1] was no less than 7.00; in assay [2] it was no less than 7.00; in assay [3], 5.90 to 6.30; in assay [4], 5.90 to 6.30.

Take `CN1C(=O)C2(CCN(C3(CC#N)CCC3)CC2)c2c1cnc1[nH]c(-c3cnn(C4CCOC4)c3)c(-c3ccc4c(cnn4C)c3)c21` (racemic) [Example 45, 2-(1-(6-Methyl-1-(1-methyl-1H-indazol-5-yl)-7-oxo-2-(1-(tetrahydrofuran-3-yl)-1H-pyrazol-4-yl)-6,7-dihydro-3H-spiro[dipyrrolo[2,3-b:3′,2′-d]pyridine-8,4′-piperidin]-1′-yl)cyclobutyl)acetonitrile, trifluoroacetate salt]: the pIC50 was no less than 7.00 in assay [1], no less than 7.00 in assay [2], 6.30 to 7.00 in assay [3] and no less than 7.00 in assay [4].

For `CN1C(=O)[C@]2(CC[C@@H](NS(=O)(=O)C3CC3)C2)c2c1cnc1[nH]c(-c3cnn(C)c3)c(-c3ccc4c(cnn4C)c3)c21` (racemic) [Example 55, trifluoroacetate salt], the pIC50 in assay [1] was no less than 7.00; in assay [2], no less than 7.00; in assay [3] it was 5.60 to 5.90; in assay [4], 5.90 to 6.30.

Turning to `[2H]C([2H])([2H])n1ncc2cc(-c3c(-c4cnn(C)c4)[nH]c4ncc5c(c34)[C@@]3(CC[C@H](NS(=O)(=O)C4CC4)C3)C(=O)N5C)ccc21` (racemic) [Example 56, trifluoroacetate salt], the pIC50 in assay [1] is no less than 7.00; in assay [2] it was no less than 7.00; in assay [3], 5.60 to 5.90; in assay [4] it was 5.60 to 5.90.

As to `CCCC(=O)N1CCC2(CC1)CC1(C2)C(=O)N(C)c2cnc3[nH]c(C4=CCC(C(=O)N(C)C)CC4)c(-c4ccc5c(cnn5C)c4)c3c21` (racemic) [Example 63, 4-(1″-Butyryl-6-methyl-1-(1-methyl-1H-indazol-5-yl)-7-oxo-6,7-dihydro-3H-dispiro[dipyrrolo[2,3-b:3′,2′-d]pyridine-8,1′-cyclobutane-3′,4″-piperidin]-2-yl)-N,N-dimethylcyclohex-3-ene-1-carboxamide, trifluoroacetate salt], the pIC50 in assay [1] was no less than 7.00; in assay [2], no less than 7.00; in assay [3], less than 5.60; in assay [4], less than 5.60.

For the compound `CN1C(=O)C2(CCN(CC3(CC#N)CC3)C2)c2c1cnc1[nH]c(-c3ccc4c(c3)OCC(=O)N4)c(-c3ccc4c(cnn4C)c3)c21` (racemic) [Example 67, 2-(1-((6-Methyl-1-(1-methyl-1H-indazol-5-yl)-7-oxo-2-(3-oxo-3,4-dihydro-2H-benzo[b][1,4]oxazin-7-yl)-6,7-dihydro-3H-spiro[dipyrrolo[2,3-b:3′,2′-d]pyridine-8,3′-pyrrolidin]-1′-yl)methyl)cyclopropyl)acetonitrile, trifluoroacetate salt], the pIC50 in assay [1] was no less than 7.00; in assay [2], no less than 7.00; in assay [3] it was less than 5.60; in assay [4], less than 5.60.

`CN1C(=O)C2(CCN(CC3(CC#N)CC3)C2)c2c1cnc1[nH]c(-c3cnn4cccnc34)c(-c3ccc4c(cnn4C)c3)c21` (racemic) [Example 68, 2-(1-((6-Methyl-1-(1-methyl-1H-indazol-5-yl)-7-oxo-2-(pyrazolo[1,5-a]pyrimidin-3-yl)-6,7-dihydro-3H-spiro[dipyrrolo[2,3-b:3′,2′-d]pyridine-8,3′-pyrrolidin]-1′-yl)methyl)cyclopropyl)acetonitrile, trifluoroacetate salt]: the pIC50 was no less than 7.00 in assay [1], no less than 7.00 in assay [2], less than 5.60 in assay [3] and less than 5.60 in assay [4].

The values above are taken from patent publication US11958861B2, “Spirocyclic lactams as JAK2 V617F inhibitors” (Incyte Corporation, priority 2021, dated 2024).
